Data taken from patent publication US20240382629A1, “HETEROBIVALENT AND HOMOBIVALENT AGENTS TARGETING FIBROBLAST ACTIVATION PROTEIN ALPHA AND/OR PROSTATE-SPECIFIC MEMBRANE ANTIGEN” (The Johns Hopkins University, priority 2021, published 2024).
Several values for one entry are separate records, joined by “and”; a condition that tells them apart may be missing. Equal values may be shown once.

Assay: Biodistribution of [^18F]JHU122047 with UAMC-01110 blocker
Type: in vivo, mouse
Conditions: 60 min; for % ID/g Bladder / % ID/g Blood / % ID/g Brain / % ID/g Fat / % ID/g Femur / % ID/g Heart / % ID/g Kidney / % ID/g Large intestine / % ID/g Liver / % ID/g Lung / % ID/g Muscle / % ID/g Pancreas / % ID/g Salivery gland / % ID/g Small intestine / % ID/g Spleen / % ID/g Stomach / % ID/g Tumor: individual mouse
[1] = NOD/SCID Model, + Blocker (UAMC-01110)
[2] = Nude Model, + Blocker (UAMC-01110)

N#C[C@@H]1CCCN1C(=O)CNC(=O)c1ccnc2ccc(OCCCNC(=O)[C@H](CCNC(=O)c3ccc([18F])nc3)NC(=O)CN3CCN(CC(=O)[O-])CCN(CC(=O)[O-])CCN(CC(=O)[O-])CC3)cc12.[In+3] [[^18F]Sri-08-51]
% ID/g Bladder [1]: 13.35 % ID/g and 61.94 % ID/g
% ID/g Blood [1]: 0.22 % ID/g and 0.40 % ID/g
% ID/g Brain [1]: 0.02 % ID/g and 1.02 % ID/g
% ID/g Fat [1]: 0.06 % ID/g
% ID/g Femur [1]: 0.88 % ID/g and 0.38 % ID/g
% ID/g Heart [1]: 0.11 % ID/g and 0.25 % ID/g
% ID/g Kidney [1]: 1.42 % ID/g and 1.40 % ID/g
% ID/g Large intestine [1]: 0.19 % ID/g and 0.35 % ID/g
% ID/g Liver [1]: 4.02 % ID/g and 8.14 % ID/g
% ID/g Lung [1]: 0.32 % ID/g and 0.61 % ID/g
% ID/g Muscle [1]: 0.07 % ID/g and 0.49 % ID/g
% ID/g Pancreas [1]: 0.08 % ID/g and 0.17 % ID/g
% ID/g Salivery gland [1]: 0.45 % ID/g and 0.26 % ID/g
% ID/g Small intestine [1]: 0.94 % ID/g and 2.12 % ID/g
% ID/g Spleen [1]: 0.14 % ID/g and 0.32 % ID/g
% ID/g Stomach [1]: 0.25 % ID/g and 0.45 % ID/g
% ID/g Tumor [1]: 1.34 % ID/g and 0.91 % ID/g
% ID/g Bladder Mean [1]: 37.64 % ID/g
% ID/g Blood Mean [1]: 0.31 % ID/g
% ID/g Brain Mean [1]: 0.52 % ID/g
% ID/g Fat Mean [1]: 0.06 % ID/g
% ID/g Femur Mean [1]: 0.88 % ID/g
% ID/g Heart Mean [1]: 0.18 % ID/g
% ID/g Kidney Mean [1]: 1.41 % ID/g
% ID/g Large intestine Mean [1]: 0.27 % ID/g
% ID/g Liver Mean [1]: 6.08 % ID/g
% ID/g Lung Mean [1]: 0.47 % ID/g
% ID/g Muscle Mean [1]: 0.28 % ID/g
% ID/g Pancreas Mean [1]: 0.13 % ID/g
% ID/g Salivary gland Mean [1]: 0.35 % ID/g
% ID/g Small intestine Mean [1]: 1.53 % ID/g
% ID/g Spleen Mean [1]: 0.23 % ID/g
% ID/g Stomach Mean [1]: 0.35 % ID/g
% ID/g Tumor Mean [1]: 1.13 % ID/g
% ID/g Bladder (NOD/SCID Model, no blocker): 44.77 % ID/g and 23.08 % ID/g
% ID/g Blood (NOD/SCID Model, no blocker): 4.18 % ID/g and 5.83 % ID/g
% ID/g Brain (NOD/SCID Model, no blocker): 0.26 % ID/g and 0.25 % ID/g
% ID/g Fat (NOD/SCID Model, no blocker): 2.81 % ID/g and 0.45 % ID/g
% ID/g Femur (NOD/SCID Model, no blocker): 4.83 % ID/g and 5.16 % ID/g
% ID/g Heart (NOD/SCID Model, no blocker): 1.74 % ID/g and 2.39 % ID/g
% ID/g Kidney (NOD/SCID Model, no blocker): 2.10 % ID/g and 2.19 % ID/g
% ID/g Large intestine (NOD/SCID Model, no blocker): 1.91 % ID/g and 1.87 % ID/g
% ID/g Liver (NOD/SCID Model, no blocker): 3.23 % ID/g and 4.21 % ID/g
% ID/g Lung (NOD/SCID Model, no blocker): 2.77 % ID/g and 2.76 % ID/g
% ID/g Muscle (NOD/SCID Model, no blocker): 2.84 % ID/g and 2.83 % ID/g
% ID/g Pancreas (NOD/SCID Model, no blocker): 3.99 % ID/g and 4.82 % ID/g
% ID/g Salivery gland (NOD/SCID Model, no blocker): 12.48 % ID/g and 14.32 % ID/g
% ID/g Small intestine (NOD/SCID Model, no blocker): 2.09 % ID/g
% ID/g Spleen (NOD/SCID Model, no blocker): 1.27 % ID/g and 1.71 % ID/g
% ID/g Stomach (NOD/SCID Model, no blocker): 1.65 % ID/g and 1.75 % ID/g
% ID/g Tumor (NOD/SCID Model, no blocker): 16.64 % ID/g and 15.98 % ID/g
% ID/g Bladder Mean (NOD/SCID Model, no blocker): 33.92 % ID/g
% ID/g Blood Mean (NOD/SCID Model, no blocker): 5.01 % ID/g
% ID/g Brain Mean (NOD/SCID Model, no blocker): 0.25 % ID/g
% ID/g Fat Mean (NOD/SCID Model, no blocker): 1.63 % ID/g
% ID/g Femur Mean (NOD/SCID Model, no blocker): 5.00 % ID/g
% ID/g Heart Mean (NOD/SCID Model, no blocker): 2.07 % ID/g
% ID/g Kidney Mean (NOD/SCID Model, no blocker): 2.15 % ID/g
% ID/g Large intestine Mean (NOD/SCID Model, no blocker): 1.89 % ID/g
% ID/g Liver Mean (NOD/SCID Model, no blocker): 3.72 % ID/g
% ID/g Lung Mean (NOD/SCID Model, no blocker): 2.77 % ID/g
% ID/g Muscle Mean (NOD/SCID Model, no blocker): 2.84 % ID/g
% ID/g Pancreas Mean (NOD/SCID Model, no blocker): 4.40 % ID/g
% ID/g Salivary gland Mean (NOD/SCID Model, no blocker): 13.40 % ID/g
% ID/g Small intestine Mean (NOD/SCID Model, no blocker): 2.09 % ID/g
% ID/g Spleen Mean (NOD/SCID Model, no blocker): 1.49 % ID/g
% ID/g Stomach Mean (NOD/SCID Model, no blocker): 1.70 % ID/g
% ID/g Tumor Mean (NOD/SCID Model, no blocker): 16.31 % ID/g
% ID/g Bladder [2]: 0.22 % ID/g and 0.74 % ID/g
% ID/g Blood [2]: 0.10 % ID/g
% ID/g Brain [2]: 0.01 % ID/g
% ID/g Fat [2]: 0.03 % ID/g and 0.01 % ID/g
% ID/g Femur [2]: 0.12 % ID/g
% ID/g Heart [2]: 0.05 % ID/g
% ID/g Kidney [2]: 1.19 % ID/g and 1.05 % ID/g
% ID/g Large intestine [2]: 0.08 % ID/g and 0.11 % ID/g
% ID/g Liver [2]: 1.88 % ID/g and 2.01 % ID/g
% ID/g Lung [2]: 0.21 % ID/g and 0.22 % ID/g
% ID/g Muscle [2]: 0.07 % ID/g and 0.04 % ID/g
% ID/g Pancreas [2]: 0.05 % ID/g
% ID/g Salivery gland [2]: 0.07 % ID/g and 0.08 % ID/g
% ID/g Small intestine [2]: 3.50 % ID/g and 2.97 % ID/g
% ID/g Spleen [2]: 0.08 % ID/g
% ID/g Stomach [2]: 0.08 % ID/g and 0.15 % ID/g
% ID/g Tumor [2]: 0.17 % ID/g and 0.18 % ID/g
% ID/g Bladder Mean [2]: 0.48 % ID/g
% ID/g Blood Mean [2]: 0.10 % ID/g
% ID/g Brain Mean [2]: 0.01 % ID/g
% ID/g Fat Mean [2]: 0.02 % ID/g
% ID/g Femur Mean [2]: 0.12 % ID/g
% ID/g Heart Mean [2]: 0.05 % ID/g
% ID/g Kidney Mean [2]: 1.12 % ID/g
% ID/g Large intestine Mean [2]: 0.09 % ID/g
% ID/g Liver Mean [2]: 1.95 % ID/g
% ID/g Lung Mean [2]: 0.21 % ID/g
% ID/g Muscle Mean [2]: 0.05 % ID/g
% ID/g Pancreas Mean [2]: 0.05 % ID/g
% ID/g Salivary gland Mean [2]: 0.08 % ID/g
% ID/g Small intestine Mean [2]: 3.24 % ID/g
% ID/g Spleen Mean [2]: 0.08 % ID/g
% ID/g Stomach Mean [2]: 0.11 % ID/g
% ID/g Tumor Mean [2]: 0.18 % ID/g
% ID/g Bladder (Nude Model, no blocker): 1.18 % ID/g and 2.99 % ID/g
% ID/g Blood (Nude Model, no blocker): 3.06 % ID/g and 3.20 % ID/g
% ID/g Brain (Nude Model, no blocker): 0.09 % ID/g and 0.08 % ID/g
% ID/g Fat (Nude Model, no blocker): 0.52 % ID/g and 0.77 % ID/g
% ID/g Femur (Nude Model, no blocker): 4.44 % ID/g and 3.86 % ID/g
% ID/g Heart (Nude Model, no blocker): 1.35 % ID/g and 1.52 % ID/g
% ID/g Kidney (Nude Model, no blocker): 1.69 % ID/g and 1.72 % ID/g
% ID/g Large intestine (Nude Model, no blocker): 1.20 % ID/g and 1.30 % ID/g
% ID/g Liver (Nude Model, no blocker): 1.81 % ID/g and 1.93 % ID/g
% ID/g Lung (Nude Model, no blocker): 2.03 % ID/g and 2.25 % ID/g
% ID/g Muscle (Nude Model, no blocker): 1.86 % ID/g and 1.93 % ID/g
% ID/g Pancreas (Nude Model, no blocker): 3.94 % ID/g and 3.77 % ID/g
% ID/g Salivery gland (Nude Model, no blocker): 7.74 % ID/g
% ID/g Small intestine (Nude Model, no blocker): 1.93 % ID/g and 1.63 % ID/g
% ID/g Spleen (Nude Model, no blocker): 0.90 % ID/g and 1.02 % ID/g
% ID/g Stomach (Nude Model, no blocker): 1.06 % ID/g and 1.16 % ID/g
% ID/g Tumor (Nude Model, no blocker): 10.87 % ID/g and 13.08 % ID/g
% ID/g Bladder Mean (Nude Model, no blocker): 2.09 % ID/g
% ID/g Blood Mean (Nude Model, no blocker): 3.13 % ID/g
% ID/g Brain Mean (Nude Model, no blocker): 0.09 % ID/g
% ID/g Fat Mean (Nude Model, no blocker): 0.64 % ID/g
% ID/g Femur Mean (Nude Model, no blocker): 4.15 % ID/g
% ID/g Heart Mean (Nude Model, no blocker): 1.43 % ID/g
% ID/g Kidney Mean (Nude Model, no blocker): 1.70 % ID/g
% ID/g Large intestine Mean (Nude Model, no blocker): 1.25 % ID/g
% ID/g Liver Mean (Nude Model, no blocker): 1.87 % ID/g
% ID/g Lung Mean (Nude Model, no blocker): 2.14 % ID/g
% ID/g Muscle Mean (Nude Model, no blocker): 1.90 % ID/g
% ID/g Pancreas Mean (Nude Model, no blocker): 3.85 % ID/g
% ID/g Salivary gland Mean (Nude Model, no blocker): 8.22 % ID/g
% ID/g Small intestine Mean (Nude Model, no blocker): 1.78 % ID/g
% ID/g Spleen Mean (Nude Model, no blocker): 0.96 % ID/g
% ID/g Stomach Mean (Nude Model, no blocker): 1.11 % ID/g
% ID/g Tumor Mean (Nude Model, no blocker): 11.97 % ID/g
